These results are taken from patent US6541463B1, “Inhibitors of type 5 and type 3 17β-hydroxysteroid dehydrogenase and methods for their use” (Endorecherche, Inc., priority 1998, dated 2003).

Experiment [1] has as its system Shionogi mouse mammary carcinoma cells. As to the kind of experiment: Androgenic activity: stimulation of proliferation of Shionogi cells. In kind it is cell-based. To be noted: Table 4′. The method, boiled down: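 Values are the percent stimulation of cell number, measured by Coulter counter, after 10–12 days of exposure to 10^−7 M or 10^−6 M compound. Androgen-sensitive Shionogi cells were seeded at 20 000 cells/well in triplicate in dextran-charcoal-treated FCS medium, refreshed every 3–4 days.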

For experiment [2], the target named is T1, estrogen receptor (Rattus norvegicus, UniProt P06211).
T1 construct: from tissue; host or cells: uterine cytosol of gonadectomized female Sprague-Dawley rats
T1 sequence (P06211 1-600): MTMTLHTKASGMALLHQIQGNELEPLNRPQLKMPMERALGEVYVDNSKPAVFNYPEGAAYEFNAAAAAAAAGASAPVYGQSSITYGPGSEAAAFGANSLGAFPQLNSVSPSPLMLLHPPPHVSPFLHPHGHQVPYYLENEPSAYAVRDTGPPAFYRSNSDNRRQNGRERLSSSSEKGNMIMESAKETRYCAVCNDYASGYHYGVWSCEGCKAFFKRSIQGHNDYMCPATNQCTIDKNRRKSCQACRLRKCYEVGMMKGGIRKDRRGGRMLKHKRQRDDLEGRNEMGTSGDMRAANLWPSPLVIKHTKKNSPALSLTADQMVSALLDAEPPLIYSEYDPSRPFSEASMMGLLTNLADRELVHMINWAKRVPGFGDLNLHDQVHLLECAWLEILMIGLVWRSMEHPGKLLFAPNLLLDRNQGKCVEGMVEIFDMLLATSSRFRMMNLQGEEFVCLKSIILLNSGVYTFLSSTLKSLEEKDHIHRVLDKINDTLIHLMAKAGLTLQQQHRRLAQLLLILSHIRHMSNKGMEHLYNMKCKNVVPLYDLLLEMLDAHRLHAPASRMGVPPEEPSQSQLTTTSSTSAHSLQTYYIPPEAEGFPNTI
As to the kind of experiment: Estrogen receptor (ER) assay: inhibition of [3H]E2 binding, uterine cytosol. To be noted: Table 4′.

With `COCCOc1cc2c(cc1C(N)=O)C1CC[C@@]3(C)C(CC[C@@]34CCC(C)(C)C(=O)O4)C1CC2` (stereo partly drawn) [EM-1424, 2-Carbamoyl-3-(2″-methoxyethyloxy)-1,3,5(10)-estratrien 17(R)-spiro-2′-(5′,5′-dimethyl-6′-oxo)tetrahydropyran], in experiment [1], the “Androgenic Activity Shionogi, Basal E^−6” value is recorded as −17% and the “Androgenic Activity Shionogi, Basal E^−7” value was determined as 0%. In addition, in experiment [2], the “% Inhibition Estrogen Receptor E^−6” value is reported as 3% and the “% Inhibition Estrogen Receptor E^−8” value was found to be 3%.

`COCCOc1cc2c(cc1C(F)(F)F)[C@H]1CC[C@@]3(C)[C@@H](CC[C@@]34CCC(C)(C)C(=O)O4)[C@@H]1CC2` [EM-1438, 3-(2′-Methoxyethoxy)-2-trifluoromethyl-1,3,5(10)-estratrien-17(R)-spiro-2′-(5′,5′-dimethyl-6′-oxo)tetrahydropyran]: in experiment [1], the “Androgenic Activity Shionogi, Basal E^−6” value was −14% and the “Androgenic Activity Shionogi, Basal E^−7” value is recorded as 10%. In experiment [2], the “% Inhibition Estrogen Receptor E^−6” value worked out at 0% and the “% Inhibition Estrogen Receptor E^−8” value amounted to 4%.
